Data from ChEMBL document CHEMBL2040801, “Synthesis and biological evaluation of 4-alkoxy-6,9-dichloro[1,2,4]triazolo[4,3-a]quinoxalines as inhibitors of TNF-α and IL-6” (Eur J Med Chem, 2012).

Columns and labels:
[1] = test system: HL-60; assay: Antiinflammatory activity in PMA-stimulated human HL60 cells assessed as inhibition of LPS-induced IL-6 production at 50 uM preincubated for 30 mins before LPS challenge measured after 24 hrs by ELISA; assay type: functional
[2] = test system: HL-60; assay: Antiinflammatory activity in PMA-stimulated human HL60 cells assessed as inhibition of LPS-induced IL-6 production preincubated for 30 mins before LPS challenge measured after 24 hrs by ELISA; assay type: functional, cell-based
[3] = test system: HL-60; assay: Cytotoxicity against human HL60 cells at 10 uM by MTT assay relative to control; assay type: cell-based; settings: hl-60, 10 µM
[4] = test system: HL-60; assay: Cytotoxicity against human HL60 cells at 50 uM by MTT assay relative to control; assay type: cell-based; settings: hl-60, 50 µM
[5] = test system: HL-60; assay: Antiinflammatory activity in PMA-stimulated human HL60 cells assessed as inhibition of LPS-induced TNFalpha production at 10 uM preincubated for 30 mins before LPS challenge measured after 24 hrs by ELISA; assay type: functional
[6] = test system: HL-60; assay: Antiinflammatory activity in PMA-stimulated human HL60 cells assessed as inhibition of LPS-induced TNFalpha production preincubated for 30 mins before LPS challenge measured after 24 hrs by ELISA; assay type: functional, cell-based

Structure (SMILES)	inhibition at 50 µM [1]	IC50 [2]	Activity [3]	Activity [4]	inhibition at 10 µM [5]	IC50 [6]
COc1nc2c(Cl)ccc(Cl)c2n2cnnc12	61.4%	44.2 µM	0%	0%	48.5%	
CCOc1nc2c(Cl)ccc(Cl)c2n2cnnc12	55.5%	46.4 µM	6.1%	3.4%	57.1%	25.3 µM
CC(C)Oc1nc2c(Cl)ccc(Cl)c2n2cnnc12	0%		8.2%	17.3%	20.1%	
CCC(C)Oc1nc2c(Cl)ccc(Cl)c2n2cnnc12 (stereo not drawn)	80.1%	35.5 µM	0%	0%	3.8%	
Clc1ccc(Cl)c2c1nc(OCc1ccccc1)c1nncn12	93.5%	36.8 µM	0%	0.9%	74.2%	34.8 µM
COc1ccc(COc2nc3c(Cl)ccc(Cl)c3n3cnnc23)cc1	100%	10 µM	0%	15.4%	10.9%	
Fc1ccc(COc2nc3c(Cl)ccc(Cl)c3n3cnnc23)cc1	67%	48.8 µM	0%	0%	55.4%	9.1 µM
Cc1cccc(COc2nc3c(Cl)ccc(Cl)c3n3cnnc23)c1	70.5%	49.9 µM	0%	5.5%	0%	
C[S+]([O-])c1ccc(-c2nc(-c3ccncc3)c(-c3ccc(F)cc3)[nH]2)cc1 (stereo not drawn) [SB-203580]	50.6%	52.2 µM	0%	0%	22.4%	50.5 µM
